In experiment [1] the test system is germinal centers. The experiment in a line: Immunohistochemistry of mouse spleen cryosections (Bcl-6 germinal centers, CD3 T cells), scored by pathologist. It is filed as in vivo. An excerpt:
(§1) Female C57BL/6 mice (Charles River Laboratories, Bedford, Mass.) were used in these studies and treated with a beta-carboline, N-(6-chloro-7-methoxy-9H-beta-carbolin-8-yl)-2-methyl-nicotinamide (ML120B) following three different treatment regimens, A, B, and C. After the treatment, animals were euthanized and tissues were collected and frozen. Germinal centers were identified by immunohistochemistry (IHC) of cryosections (6 μm) using an antibody to mouse Bcl-6. T cells also were identified by IHC of serial cryosections, using an antibody to mouse CD3. The size and/or frequency of germinal centers and T cells were scored by a board-certified anatomic pathologist, using a 0 (low) to 4 (high) scale.
(§2) Mice were given a single oral dose of ML120B as indicated (n=4/group) for 6 hours. The level of mouse mu heavy chain germline transcript was measured in RNA isolated from serial cryosections by qRT-PCR.
(§3) Mice were given a single oral dose of ML120B as indicated (n=4/group) for 18 hours. The level of mouse mu heavy chain germline transcript was measured in RNA isolated from serial cryosections by qRT-PCR.
Mice were given twice daily oral dose of ML120B by gavage, as indicated (n=4/group) for four days. The level of mouse mu, gamma 3 and gamma 1 heavy chain germline transcript, AICDA transcript, gamma 1 & 2 circle transcript and 18S rRNA were measured in RNA isolated from serial cryosections by qRT-PCR. […] Germinal centers expressing Bcl-6 decreased 10-fold at 300 mg/kg (FIG. 3). Germline transcripts mu, gamma 3 and gamma 1 decreased from 10-1000-fold at 300 mg/kg (FIG. 3). Transcripts encoding AICDA decreased 100-1000-fold at 300 mg/kg (FIG. 3). Circle transcript gamma 1&2 decreased 10-fold at 100 mg/kg (FIG. 3).

For experiment [2], the system named is switch transcripts in mouse spleens. Kind of experiment: qRT-PCR of switch transcripts in mouse spleens. It is filed as in vivo. The following applies: spleen.
Text: as §1
Total ribonucleic acid (RNA) was isolated from 10 spleen cryosections, each […], using the RNEASY® Universal Tissue 8000 Kit (QIAGEN Inc., Valencia, Calif.) on a BIOROBOT® 8000 Workstation (QIAGEN INC., Valencia, Calif.), and deoxyribonucleic acidase (DNASE)-treated according to the manufacturer's protocol. The purity and yield of the RNA were assessed via spectrophotometry from 220 to 750 nm using the NANODROP® ND-1000 (NANODROP Technologies, Wilmington, Del.). The integrity of the RNA was measured with the RNA 6000 NANO LABCHIP® Kit (AGILENT Technologies, Foster City, Calif.) on an AGILENT 2100 Bioanalyzer (AGILENT Technologies, Foster City, Calif.) and calculated using the RNA integrity number (RIN) algorithm (Schroeder et al. (2006) BMC Mol. Biol. 7:3). Deoxyribonucleic acidase-treated RNA was extracted from the samples and stored at −80° C. First strand complementary deoxyribonucleic acid (cDNA) synthesis was performed using a TAQMAN® Gold RT Master Mix (Applied Biosystems, Foster City, Calif.) according to the manufacturer's protocol, except that both oligothymidylic (oligo[dT]) and random hexamers were used for priming. The quality of synthesized cDNA was assessed by generating expression profiles of endogenous reference genes with a real-time polymerase chain reaction (PCR) system, the ABI PRISM® 7900HT Sequence Detection System (Applied Biosystems, Foster City, Calif.). Complementary deoxyribonucleic acid samples were stored at −20° C.
Sequences for all biomarkers (Table 1) were derived from mouse and human deoxyribonucleic acid (DNA) sequence (GENBANK® database [online] maintained by National Center for Biotechnology Information, Bethesda, Md.). Quantitative reverse-transcriptase polymerase chain reaction assays were performed on an ABI PRISM® 7900HT Sequence Detection System (Applied Biosystems, Inc. (Foster City, Calif.) using a SYBR-green detection system (Qiagen Inc., Valencia, Calif.). All quantitative assays were run using universal thermal cycling parameters: hold at 95° C. for 2 minutes to activate the DNA polymerase, then run 40 three-part cycles (95° C. for 20 seconds, 58° C. for 20 seconds, and 76° C. for 20 seconds). Data were analyzed using sequence detection system (SDS) software, Version 1.7 (Applied Biosystems, Inc. (Foster City, Calif.). […] From each amplification plot, a threshold cycle (Ct) value was calculated. […] The Ct values were exported to an EXCEL® (MICROSOFT Corp., Redmond, Wash.) spreadsheet and relative expression (x) was calculated as shown in equation 2.
as §2, §3
Mice were given twice daily oral dose of ML120B by gavage, as indicated (n=4/group) for four days. The level of mouse mu, gamma 3 and gamma 1 heavy chain germline transcript, AICDA transcript, gamma 1 & 2 circle transcript and 18S rRNA were measured in RNA isolated from serial cryosections by qRT-PCR. […]
For orientation: Quantitative PCR measures a nucleic acid by following its amplification.

The mark [3] stands for this setting: single oral dose 300 mg/kg, 18 hours.
The mark [4] stands for this setting: single oral dose, within first 6 hours.
[5] abbreviates: twice daily oral 300 mg/kg, four days.

On to `COc1c(Cl)cc2c([nH]c3cnccc32)c1NC(=O)c1cccnc1C` [ML120B, N-(6-chloro-7-methoxy-9H-beta-carbolin-8-yl)-2-methyl-nicotinamide], for which, in experiment [1] (setting [3]), the “reduction in germinal centers” value is recorded as 10 fold. The “frequency of T cells” value is “remained unchanged” in experiment [1] (single oral dose, 6 hours) and “remained unchanged” in experiment [1] (single oral dose, 18 hours). Also, the “decrease in frequency of germinal centers” value in experiment [1] (setting [4]) was determined as 50%. In addition, in experiment [1] (setting [5]), the “decrease in germinal centers expressing Bcl-6” value was 10 fold. Also, in experiment [2] (setting [3]), the “reduction in mu germline transcripts” value stood at 1000 fold. The “level of 18S rRNA” value in experiment [2] (single oral dose, 18 hours) is recorded as “remained unchanged”; in experiment [2] (twice daily oral, four days), “remained unchanged”. For the same molecule, the “decrease in level of mu germline transcripts” value in experiment [2] (setting [4]) worked out at 50%. For the same molecule, in experiment [2] (twice daily oral 100 mg/kg, four days), the “decrease in circle transcript gamma 1&2” value is given as 10 fold. The “decrease in germline transcripts mu, gamma 3 and gamma 1” value in experiment [2] (setting [5]) is 10-1000 fold. Also, the “decrease in transcripts encoding AICDA” value in experiment [2] (setting [5]) is 100-1000 fold.

(Values after patent US20110111417A1, “METHODS AND KITS FOR MONITORING THE EFFECTS OF IMMUNOMODULATORS ON ADAPTIVE IMMUNITY” (priority 2008, published 2011).)
